Measured values taken from PMC8725837, “2-Arylquinolines as novel anticancer agents with dual EGFR/FAK kinase inhibitory activity: synthesis, biological evaluation, and molecular modelling insights” (Journal of Enzyme Inhibition and Medicinal Chemistry, 2021).

How the values were obtained:
[1] = target: T1, VEGFR-2 (Homo sapiens, UniProt P35968); test: Z`-LYTE kinase profiling, VEGFR-2; format: biochemical
T1 construct: purchased Invitrogen/Life Technologies

[2] = target: T2, FRK (Homo sapiens, UniProt P42685); test: Z`-LYTE kinase profiling, FRK; format: biochemical
T2 construct: purchased Invitrogen/Life Technologies

[3] = target: T3, BTK (Homo sapiens, UniProt Q06187); test: Z`-LYTE kinase profiling, BTK; format: biochemical
T3 construct: purchased Invitrogen/Life Technologies

[4] = system: HeLa cervical cancer cell line; test: MTT antiproliferative assay, HeLa; format: cell-based; conditions: 10 µM, 24 h
Description: (§1) At least, three independent experiments were performed.

[5] = system: MCF-7 breast cancer cell line; test: MTT antiproliferative assay, MCF-7; format: cell-based; conditions: 10 µM, 24 h
Description: as §1

[6] = system: MDMBA-231 breast cancer cell line; test: MTT antiproliferative assay, MDMBA-231; format: cell-based; conditions: 10 µM, 24 h
Description: as §1

[7] = target: T4, VEGFR-1 (Homo sapiens, UniProt P17948); test: Z`-LYTE kinase profiling, VEGFR-1; format: biochemical
T4 construct: purchased Invitrogen/Life Technologies

[8] = system: HCT-116 colorectal cancer cell line; test: MTT antiproliferative assay, HCT-116; conditions: for GI% HCT-116: 10 µM, 24 h, MTT; for IC50: Homo sapiens, HCT-116, 24 h, read-out: IC50 HCT-116 (half maximal growth inhibitory concentration)
[9] = target: FAK (Homo sapiens, UniProt Q05397); test: Z`-LYTE kinase inhibitory assay, FAK
[10] = system: DLD-1 colorectal cancer cell line; test: MTT antiproliferative assay, DLD-1; conditions: for GI% DLD1: 10 µM, 24 h, MTT; for IC50: Homo sapiens, DLD-1, 24 h, read-out: IC50 DLD1 (half maximal growth inhibitory concentration)
[11] = target: T5, recombinant human TOP1 (Homo sapiens, UniProt P11387); test: Topoisomerase I-mediated DNA cleavage assay; conditions: tested at 0.1, 1, 10, 100 µM
T5 sequence (P11387 1-765): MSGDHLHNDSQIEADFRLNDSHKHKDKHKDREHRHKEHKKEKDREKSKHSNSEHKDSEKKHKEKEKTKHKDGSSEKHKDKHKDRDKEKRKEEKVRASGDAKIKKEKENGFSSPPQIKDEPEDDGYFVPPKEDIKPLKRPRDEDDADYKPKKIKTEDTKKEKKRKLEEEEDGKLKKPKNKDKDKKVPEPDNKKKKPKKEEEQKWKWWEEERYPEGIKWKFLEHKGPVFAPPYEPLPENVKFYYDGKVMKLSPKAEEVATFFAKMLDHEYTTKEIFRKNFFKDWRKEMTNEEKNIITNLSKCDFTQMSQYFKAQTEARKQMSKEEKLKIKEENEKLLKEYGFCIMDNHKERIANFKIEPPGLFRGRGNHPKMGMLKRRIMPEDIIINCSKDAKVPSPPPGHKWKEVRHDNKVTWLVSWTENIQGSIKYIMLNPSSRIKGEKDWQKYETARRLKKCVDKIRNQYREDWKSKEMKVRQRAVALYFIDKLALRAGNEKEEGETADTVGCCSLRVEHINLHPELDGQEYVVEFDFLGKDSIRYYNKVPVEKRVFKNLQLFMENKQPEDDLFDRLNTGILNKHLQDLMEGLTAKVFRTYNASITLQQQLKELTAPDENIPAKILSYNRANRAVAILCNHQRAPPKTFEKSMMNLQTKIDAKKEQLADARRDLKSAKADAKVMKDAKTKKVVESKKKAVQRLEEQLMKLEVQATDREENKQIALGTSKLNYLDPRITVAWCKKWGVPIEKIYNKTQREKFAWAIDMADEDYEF

[12] = target: T6, IGF-1R (Homo sapiens, UniProt P08069); test: Z`-LYTE kinase profiling, IGF-1R; format: biochemical
T6 construct: purchased Invitrogen/Life Technologies

[13] = target: T7, HER-2 (Homo sapiens, UniProt P04626); test: Z`-LYTE kinase profiling, HER-2; format: biochemical
T7 construct: purchased Invitrogen/Life Technologies

[14] = target: EGFR (Homo sapiens, UniProt P00533); test: Z`-LYTE kinase inhibitory assay, EGFR
[15] = target: T8, c-Src (Homo sapiens, UniProt P12931); test: Z`-LYTE kinase profiling, c-Src; format: biochemical
T8 construct: purchased Invitrogen/Life Technologies
T8 sequence (P12931 whole entry): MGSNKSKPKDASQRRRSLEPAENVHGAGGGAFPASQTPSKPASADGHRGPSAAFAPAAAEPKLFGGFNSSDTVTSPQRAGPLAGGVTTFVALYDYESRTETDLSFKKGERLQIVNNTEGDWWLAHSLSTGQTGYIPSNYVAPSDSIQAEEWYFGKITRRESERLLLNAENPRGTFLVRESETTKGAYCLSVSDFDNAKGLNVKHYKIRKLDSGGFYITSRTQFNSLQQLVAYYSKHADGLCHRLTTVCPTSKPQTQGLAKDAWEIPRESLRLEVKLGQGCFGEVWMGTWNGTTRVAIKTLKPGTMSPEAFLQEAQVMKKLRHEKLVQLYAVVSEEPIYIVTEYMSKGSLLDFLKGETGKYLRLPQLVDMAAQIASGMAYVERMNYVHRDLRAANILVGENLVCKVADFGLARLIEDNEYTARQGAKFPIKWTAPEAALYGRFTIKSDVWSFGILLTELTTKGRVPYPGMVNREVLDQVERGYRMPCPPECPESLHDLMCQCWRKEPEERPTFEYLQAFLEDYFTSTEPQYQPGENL

T1 sequence (P35968 20-1356): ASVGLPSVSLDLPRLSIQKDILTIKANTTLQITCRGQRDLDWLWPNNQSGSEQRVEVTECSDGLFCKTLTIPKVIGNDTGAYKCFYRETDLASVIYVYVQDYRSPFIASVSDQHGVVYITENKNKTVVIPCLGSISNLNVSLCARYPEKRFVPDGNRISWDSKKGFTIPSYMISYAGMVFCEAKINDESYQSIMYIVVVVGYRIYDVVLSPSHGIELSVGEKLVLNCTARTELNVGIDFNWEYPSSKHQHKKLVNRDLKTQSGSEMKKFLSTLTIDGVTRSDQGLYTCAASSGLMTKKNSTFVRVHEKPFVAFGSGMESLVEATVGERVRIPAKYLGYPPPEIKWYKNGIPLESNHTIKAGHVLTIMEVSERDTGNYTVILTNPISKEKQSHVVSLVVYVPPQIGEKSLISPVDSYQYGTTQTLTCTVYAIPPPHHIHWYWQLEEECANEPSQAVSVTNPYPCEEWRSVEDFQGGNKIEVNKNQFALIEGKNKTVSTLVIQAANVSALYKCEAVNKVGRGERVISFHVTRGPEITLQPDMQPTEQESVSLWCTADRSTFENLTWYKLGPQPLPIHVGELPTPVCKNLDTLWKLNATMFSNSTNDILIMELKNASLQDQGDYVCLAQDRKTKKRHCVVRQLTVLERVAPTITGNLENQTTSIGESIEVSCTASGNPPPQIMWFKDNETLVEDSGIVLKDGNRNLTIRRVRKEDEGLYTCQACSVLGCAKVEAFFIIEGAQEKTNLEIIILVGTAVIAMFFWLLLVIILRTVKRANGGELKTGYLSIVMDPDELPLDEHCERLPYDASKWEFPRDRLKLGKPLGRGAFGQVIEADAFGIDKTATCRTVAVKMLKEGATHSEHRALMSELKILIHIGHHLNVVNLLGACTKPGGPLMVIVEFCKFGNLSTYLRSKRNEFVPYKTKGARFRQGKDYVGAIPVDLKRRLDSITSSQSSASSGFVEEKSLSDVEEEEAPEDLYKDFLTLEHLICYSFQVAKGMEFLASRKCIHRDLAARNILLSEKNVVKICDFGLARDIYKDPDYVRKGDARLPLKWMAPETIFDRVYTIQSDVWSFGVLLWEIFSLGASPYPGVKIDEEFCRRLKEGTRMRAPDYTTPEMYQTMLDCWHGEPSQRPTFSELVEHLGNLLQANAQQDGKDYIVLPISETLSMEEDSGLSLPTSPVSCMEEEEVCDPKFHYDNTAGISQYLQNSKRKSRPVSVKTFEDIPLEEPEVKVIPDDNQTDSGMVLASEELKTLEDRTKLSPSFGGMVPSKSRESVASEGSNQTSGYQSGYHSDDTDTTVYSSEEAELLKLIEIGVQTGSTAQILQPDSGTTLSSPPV
T6 sequence (P08069 31-1367): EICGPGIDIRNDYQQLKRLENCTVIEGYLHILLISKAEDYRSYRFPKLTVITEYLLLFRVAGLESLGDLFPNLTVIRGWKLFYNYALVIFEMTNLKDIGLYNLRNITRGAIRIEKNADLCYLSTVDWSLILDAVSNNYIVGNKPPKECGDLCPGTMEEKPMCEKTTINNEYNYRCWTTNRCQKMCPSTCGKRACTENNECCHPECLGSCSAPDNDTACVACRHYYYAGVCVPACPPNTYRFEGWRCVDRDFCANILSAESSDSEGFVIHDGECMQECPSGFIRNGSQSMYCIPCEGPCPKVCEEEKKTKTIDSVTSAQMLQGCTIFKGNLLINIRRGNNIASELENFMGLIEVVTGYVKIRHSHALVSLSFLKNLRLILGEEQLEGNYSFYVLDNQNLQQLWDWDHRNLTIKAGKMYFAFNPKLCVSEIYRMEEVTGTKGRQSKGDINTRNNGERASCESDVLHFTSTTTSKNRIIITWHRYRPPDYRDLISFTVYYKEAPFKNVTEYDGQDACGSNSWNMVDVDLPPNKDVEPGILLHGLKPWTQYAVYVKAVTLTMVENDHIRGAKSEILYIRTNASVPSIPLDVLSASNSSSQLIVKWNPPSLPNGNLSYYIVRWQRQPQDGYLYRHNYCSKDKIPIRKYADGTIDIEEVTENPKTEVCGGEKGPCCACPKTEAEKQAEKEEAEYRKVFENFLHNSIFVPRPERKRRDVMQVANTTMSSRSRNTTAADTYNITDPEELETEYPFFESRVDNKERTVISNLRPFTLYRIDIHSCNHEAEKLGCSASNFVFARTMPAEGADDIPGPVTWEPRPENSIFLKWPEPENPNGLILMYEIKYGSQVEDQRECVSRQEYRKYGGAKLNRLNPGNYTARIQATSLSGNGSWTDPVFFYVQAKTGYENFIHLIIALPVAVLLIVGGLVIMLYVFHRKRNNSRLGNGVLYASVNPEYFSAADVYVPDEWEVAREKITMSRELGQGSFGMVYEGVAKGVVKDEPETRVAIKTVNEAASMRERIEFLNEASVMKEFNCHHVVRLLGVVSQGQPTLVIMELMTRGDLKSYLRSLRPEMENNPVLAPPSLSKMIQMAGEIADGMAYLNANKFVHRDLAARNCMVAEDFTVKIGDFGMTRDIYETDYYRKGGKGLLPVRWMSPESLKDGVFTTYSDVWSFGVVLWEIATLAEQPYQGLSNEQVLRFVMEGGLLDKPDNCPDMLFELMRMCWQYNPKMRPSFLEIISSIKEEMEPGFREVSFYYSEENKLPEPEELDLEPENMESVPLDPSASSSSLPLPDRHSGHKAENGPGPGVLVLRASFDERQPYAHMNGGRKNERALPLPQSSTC
Sequence of FAK (Q05397 whole entry): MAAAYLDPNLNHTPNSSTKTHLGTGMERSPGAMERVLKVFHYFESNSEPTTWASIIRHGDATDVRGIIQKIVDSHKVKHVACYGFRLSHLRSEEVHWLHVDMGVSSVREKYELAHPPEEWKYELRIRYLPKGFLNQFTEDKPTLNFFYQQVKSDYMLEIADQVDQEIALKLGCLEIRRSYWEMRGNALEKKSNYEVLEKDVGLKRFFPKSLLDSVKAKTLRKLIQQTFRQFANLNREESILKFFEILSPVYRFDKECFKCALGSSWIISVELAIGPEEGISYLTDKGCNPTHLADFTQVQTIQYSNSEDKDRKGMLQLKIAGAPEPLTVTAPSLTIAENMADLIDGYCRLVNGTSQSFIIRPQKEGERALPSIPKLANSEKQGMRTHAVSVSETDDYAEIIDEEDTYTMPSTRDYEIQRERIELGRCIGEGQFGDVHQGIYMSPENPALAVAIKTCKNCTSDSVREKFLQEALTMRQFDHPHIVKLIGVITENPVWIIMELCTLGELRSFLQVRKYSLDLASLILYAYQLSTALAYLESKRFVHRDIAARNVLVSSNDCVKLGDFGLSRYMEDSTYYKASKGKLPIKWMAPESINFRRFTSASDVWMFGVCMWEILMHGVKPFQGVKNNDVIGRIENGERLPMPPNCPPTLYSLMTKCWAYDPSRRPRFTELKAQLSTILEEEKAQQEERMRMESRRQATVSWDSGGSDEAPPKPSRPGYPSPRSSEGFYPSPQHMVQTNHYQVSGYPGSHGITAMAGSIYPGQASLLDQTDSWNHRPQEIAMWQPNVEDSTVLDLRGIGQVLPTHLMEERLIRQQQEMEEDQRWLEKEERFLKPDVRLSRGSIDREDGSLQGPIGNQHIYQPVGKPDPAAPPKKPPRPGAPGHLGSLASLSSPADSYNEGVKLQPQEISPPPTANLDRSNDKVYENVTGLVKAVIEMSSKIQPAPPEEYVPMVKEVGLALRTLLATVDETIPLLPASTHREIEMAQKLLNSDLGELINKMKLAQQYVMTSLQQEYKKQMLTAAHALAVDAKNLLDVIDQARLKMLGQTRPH
T2 sequence (P42685 whole entry): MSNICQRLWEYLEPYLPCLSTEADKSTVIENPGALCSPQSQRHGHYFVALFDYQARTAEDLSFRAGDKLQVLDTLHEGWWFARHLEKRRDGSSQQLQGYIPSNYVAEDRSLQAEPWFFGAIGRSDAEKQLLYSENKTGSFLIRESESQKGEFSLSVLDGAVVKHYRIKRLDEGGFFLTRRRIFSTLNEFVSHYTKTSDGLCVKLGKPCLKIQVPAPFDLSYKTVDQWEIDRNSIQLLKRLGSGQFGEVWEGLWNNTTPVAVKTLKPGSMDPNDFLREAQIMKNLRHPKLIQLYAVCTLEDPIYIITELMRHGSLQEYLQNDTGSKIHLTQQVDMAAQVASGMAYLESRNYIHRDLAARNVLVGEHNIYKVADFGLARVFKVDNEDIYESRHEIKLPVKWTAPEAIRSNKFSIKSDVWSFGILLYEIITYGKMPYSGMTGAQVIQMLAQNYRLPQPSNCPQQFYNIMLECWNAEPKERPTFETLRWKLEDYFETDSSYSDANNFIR

IC50 [1]	IC50 [2]	IC50 [3]	IC50 [7]	IC50 [8]	IC50 [9]	IC50 [10]	melting point	TOP1 inhibitory activity (semiquantitative score relative to 1 µM CPT) [11]	IC50 [12]	IC50 [13]	IC50 [14]	IC50 [15]	Compound	GI% Hela [4]	GI% MCF-7 [5]	GI% MDMBA-231 [6]	GI% HCT-116 [8]	GI% DLD1 [10]
997 nM	1280 nM	4760 nM	1110 nM	46800 ± 3160 nM	146 ± 10.5 nM	75400 ± 5460 nM	131 to 133 °C	0	1480 nM	455 nM	365 ± 14.8 nM	2760 nM	COc1cc2nc(-c3ccc(C(F)(F)F)cc3)cc(OCCCNC3CCCCC3)c2cc1OC [6g, N-(3-((6,7-dimethoxy-2–(4-(trifluoromethyl)phenyl)quinolin-4-yl)oxy)propyl)cyclohexan-amine]	46.28%	76.38%	48.15%	22.16%	25.36%
492 nM	507 nM	1370 nM	303 nM	4670 ± 850 nM	37 ± 2.34 nM	8150 ± 1050 nM	108 to 110 °C	−/+ (−/+: 0–25% 1 µM CPT)	1590 nM	695 nM	46.4 ± 4.09 nM	408 nM	COc1cc2nc(-c3ccc(Cl)cc3)cc(OCCCNCC3CCCO3)c2cc1OC (stereo not drawn) [6d, 3-((2–(4-chlorophenyl)-6,7-dimethoxyquinolin-4-yl)oxy)-N-((tetrahydrofuran-2-yl)methy-l)propan-1-amine]	26.98%	71.97%	63.39%	82.61%	75.64%
2400 nM	743 nM	1610 nM	346 nM	8110 ± 1040 nM	26.4 ± 2.81 nM	6340 ± 520 nM	126 to 128 °C	−/+ (−/+: 0–25% 1 µM CPT)	1820 nM	756 nM	34.9 ± 3.76 nM	1920 nM	COc1cc2nc(-c3ccc(C)cc3)cc(OCCCNC3CCCCC3)c2cc1OC [6l, N-(3-((6,7-dimethoxy-2-(p-tolyl)quinolin-4-yl)oxy)propyl)cyclohexanamine]	34.29%	44.71%	38.36%	69.15%	75.34%
6740 nM	9150 nM	8520 nM	3330 nM	16800 ± 1560 nM	98.2 ± 4.67 nM	19400 ± 2150 nM	118 to 120 °C	−/+ (−/+: 0–25% 1 µM CPT)	8060 nM	123 nM	45.3 ± 5.36 nM	2500 nM	COc1cc2nc(-c3ccc(Cl)cc3)cc(OCCCNC3CCCCC3)c2cc1OC [6b, N-(3-((2–(4-chlorophenyl)-6,7-dimethoxyquinolin-4-yl)oxy)propyl)cyclohexanamine]	12.81%	23.49%	19.67%	42.81%	36.25%

The next lines start with the compound.

Compound	IC50 [1]	IC50 [2]	IC50 [3]	IC50 [7]	IC50 [8]	IC50 [9]	IC50 [10]	melting point	TOP1 inhibitory activity (semiquantitative score relative to 1 µM CPT) [11]	IC50 [12]	IC50 [13]	IC50 [14]	IC50 [15]	GI% Hela [4]	GI% MCF-7 [5]	GI% MDMBA-231 [6]	GI% HCT-116 [8]	GI% DLD1 [10]
COc1ccc(-c2ccc3nc(-c4ccc(Cl)cc4)cc(OCCCN4CCOCC4)c3c2)cc1 [20b, 4-(3-((2-(4-chlorophenyl)-6-(4-methoxyphenyl)quinolin-4-yl)oxy)propyl)morpholine]	2300 nM	8710 nM	8980 nM	4740 nM	7340 ± 1820 nM	63.2 ± 3.25 nM	9650 ± 2150 nM	173 to 175 °C	0	8910 nM	1650 nM	245 ± 12.3 nM	4210 nM	34.02%	29.37%	48.31%	71.05%	53.15%
COc1cc2ncnc(Nc3ccc(F)c(Cl)c3)c2cc1OCCCN1CCOCC1 [Gefitinib, reference compound]	–	–	–	–	6940 ± 1240 nM	–	–	–	–	–	–	–	–	–	–	–	–	–
CNC(=O)c1ccccc1Nc1nc(Nc2ccc(N3CCOCC3)cc2OC)ncc1Cl [TAE226, reference compound]	–	–	–	–	170 ± 40 nM	–	120 ± 50 nM	–	–	–	–	–	–	–	–	–	–	–
